Read-outs that look alike come from different tables or passages of the source.
Columns and labels:
Assay type in all cases: cell-based
MV-4-11 cells = assay: Inhibition of MV-4-11 cell proliferation (MTS, 7 days); conditions: Homo sapiens
Protocol: MV-4-11 cells were cultured in IMDM with 10% fetal bovine serum, collected, and diluted to the appropriate cell concentration for a 7-day treatment period. A 96-well plate was used, and 180 μL of cell suspension was added to each well, resulting in a cell count of 2,000 per well. For the control wells, 20 μL of DMSO at a final concentration of 0.2% was added. The compounds were diluted from a 10 mM stock solution in a five-fold gradient, and 20 μL was added to the compound wells (with a final DMSO concentration of 0.2%). The cells were incubated in a 37° C., 5% CO2 incubator for 7 days. After preparing the reaction solution using the MTS reagent kit (Promega, G5430), 20 μL was added to each well, and the cells were incubated in the incubator for 3-4 hours. The absorbance at 490 nm was measured using a microplate reader, with the absorbance at 690 nm as the background value. The final data was calculated as OD490-OD690. The inhibition rate of the compounds was calculated using the formula: […]
The IC50 values for proliferation inhibition were calculated using GraphPad Prism 5.0. The experiments were repeated three times, with three parallel experiments for each, and the mean and standard deviation were calculated.
The cell activity test results are shown in Table 3: A indicates IC50<1 μM, B indicates 1 µM≤IC50≤20 μM, and C indicates IC50>20 μM.

Mino cells = assay: Inhibition of cell proliferation of Mino cells (MTS, 3 days); conditions: Homo sapiens, MINO, 72 h, 3 days, MTS, Table 2, read-out: Mino Cells Inhibition Activity IC50
Protocol: Mino cells were cultured with RPMI-1640 medium supplemented with 15% fetal bovine serum, and collected. The cell concentration was diluted according to a 3-day treatment period, and 90 μL of the cell suspension was added to each well of a 96-well plate, resulting in 8000 cells per well. For control wells, 10 μL of DMSO at a final concentration of 0.2% was added. The compounds were diluted in a 5-fold gradient from a 10 mM stock solution, and 10 μL of each compound solution was added to the experimental wells (with a final DMSO concentration of 0.2%). The cells were incubated in a 37° C., 5% CO2 incubator for 3 days. After preparing the reaction mixture using the MTS reagent kit (Promega, G5430), 20 μL was added to each well, and the cells were incubated for 3-4 hours at 37° C., 5% CO2.
The absorbance at 490 nm was read using a microplate reader, with the absorbance at 690 nm used as the background. The final raw data was calculated as OD490-OD690. The inhibition rate of the compounds was calculated using the formula: Inhibition rate=(OD DMSO−OD compound)/(OD DMSO−OD blank)×100%. The IC50 values for cell proliferation inhibition of the compounds were fitted using GraphPad Prism 5.0. The experiment was repeated three times, with the average and standard deviation calculated from three parallel experiments each time.

MM.1S cells = assay: Effect of the compound on MM.1S cell proliferation (MTS, 7 days); conditions: Homo sapiens, MM1.S, 168 h, 7 days, MTS, Table 1, read-out: MM.1S Cells Inhibition Activity IC50
Protocol: MM.1S cells were cultured in 1640 medium supplemented with 10% fetal bovine serum, then collected and diluted to the desired cell concentration after 7 days of treatment. A total of 180 μL of cell suspension was added to each well in a 96-well cell plate, ensuring 20,000 cells per well. For the control group, 20 μL of 0.2% DMSO was added to each well. Compounds were diluted in a 5-step gradient from a 10 mM stock solution, and 20 μL of each dilution was added to the compound-containing wells (with a final DMSO concentration of 0.2%). The cells were incubated in a 37° C., 5% CO2 incubator for 7 days. Afterward, 20 μL of the MTS reagent (Promega, G5430) was added to each well, followed by incubation for 3-4 hours in a 37° C., 5% CO2 incubator. Absorbance at 490 nm was measured using a microplate reader, with 690 nm absorbance as the background. The final raw data was calculated as OD490-OD690. The compound inhibition rate was calculated using the formula: […]
The IC50 for the compound's proliferative inhibition was fitted using GraphPad Prism 5.0. The experiment was repeated three times, and the average and standard deviation were calculated using three parallel experiments per trial.

[1] = MV4-11, positive compounds, read-out: IC50 in MV-4-11 acute leukemia cells
[2] = MV4-11, 168 h, 7 days, MTS, Table 3, read-out: MV-4-11 Cells Inhibition Activity IC50

| Compound | IC50 (MV-4-11 cells; [1]) [µM] | IC50 (MM.1S cells) [µM] | IC50 (MV-4-11 cells; [2]) [µM] | IC50 (Mino cells) [µM] |
| --- | --- | --- | --- | --- |
| Cc1nc2cccc(N)c2c(=O)n1C1CCC(=O)NC1=O (stereo not drawn) [CC-122, reference compound] | > 20 |  |  |  |
| O=C1CCC(N2Cc3c(OCc4ccc(CN5CCOCC5)cc4)cccc3C2=O)C(=O)N1 (stereo not drawn) [CC-220, reference compound] | > 20 | < 0.015 | > 20 | 0.06 to 0.12 |
| O=C1CCC(N2C(=O)c3cccc(NCc4cnc(-c5cccc(OC(F)(F)F)c5)o4)c3C2=O)C(=O)N1 (stereo not drawn) [Example 55] |  | 0.015 to 0.03 | < 1 |  |
| O=C1CCC(N2C(=O)c3cccc(NCc4cnc(-c5ccccc5OC(F)(F)F)o4)c3C2=O)C(=O)N1 (stereo not drawn) [Example 56] |  | 0.03 to 0.15 | 1 to 20 |  |
| O=C1CCC(N2C(=O)c3cccc(NCc4cnc(-c5cccc(Cl)c5)s4)c3C2=O)C(=O)N1 (stereo not drawn) [Example 68, 4-(((2-(3-Chlorophenyl)thiazol-5-yl)methyl)amino)-2-(2,6-Dioxopiperidin-3-yl)isoindolin-1,3-dione] |  |  | < 1 | > 0.12 |
| O=C1CCC(N2C(=O)c3cccc(NCc4cnc(-c5cccc(F)c5)o4)c3C2=O)C(=O)N1 (stereo not drawn) [Example 70, 2-(2,6-Dioxopiperidin-3-yl)-4-(((2-(3-Fluorophenyl)oxazol-5-yl)methyl)amino)isoindolin-1,3-dione] |  | 0.015 to 0.03 | 1 to 20 |  |
| O=C1CCC(N2C(=O)c3cccc(NCc4cnc(-c5cc(Cl)cc(Cl)c5)o4)c3C2=O)C(=O)N1 (stereo not drawn) [Example 75, 4-(((2-(3,5-Dichlorophenyl)oxazol-5-yl)methyl)amino)-2-(2,6-Dioxopiperidin-3-yl)isoindolin-1,3-dione] |  |  | < 1 | > 0.12 |
| O=C1CCC(N2C(=O)c3cccc(NCc4cnc(-c5ccccc5OC5COC5)o4)c3C2=O)C(=O)N1 (stereo not drawn) [Example 101] |  |  | 1 to 20 |  |
| O=C1CCC(N2C(=O)c3cccc(NCc4cnc(-c5ccc(OC6COC6)cc5)s4)c3C2=O)C(=O)N1 (stereo not drawn) [Example 102] |  | 0.03 to 0.15 | 1 to 20 |  |

Now from value to molecule, other results behind:

| IC50 (MV-4-11 cells; [1]) [µM] | IC50 (MM.1S cells) [µM] | IC50 (MV-4-11 cells; [2]) [µM] | Compound | IC50 (Mino cells) [µM] |
| --- | --- | --- | --- | --- |
|  | < 0.015 | 1 to 20 | CC1(C(=O)N2CCC(c3ncc(CNc4cccc5c4C(=O)N(C4CCC(=O)NC4=O)C5=O)o3)CC2)CCC1 (stereo not drawn) [Example 1] | < 0.06 |
|  | < 0.015 | < 1 | O=C1CCC(N2C(=O)c3cccc(NCc4cnc(C5CCN(C(=O)C6(c7ccc(F)cc7)CCC6)CC5)o4)c3C2=O)C(=O)N1 (stereo not drawn) [Example 2] | < 0.06 |
|  | < 0.015 | 1 to 20 | O=C1CCC(N2C(=O)c3cccc(NCc4cnc(C5CCN(C(=O)C67CC8CC(CC(C8)C6)C7)CC5)o4)c3C2=O)C(=O)N1 (stereo not drawn) [Example 3, 4-((2-(1-((3r,5r,7r)-adamantane-1-carbonyl)piperidin-4-yl)oxazol-5-yl)methyl)amino)-2-(2,6-dioxopiperidin-3-yl)isoindoline-1,3-dione] | < 0.06 |
|  | < 0.015 | < 1 | O=C1CCC(N2C(=O)c3cccc(NCc4cnc(C5CCN(C(=O)C6(C(F)(F)F)CCC6)CC5)o4)c3C2=O)C(=O)N1 (stereo not drawn) [Example 4] | < 0.06 |
|  | 0.015 to 0.03 | 1 to 20 | O=C1CCC(N2C(=O)c3cccc(NCc4cnc(C5CCN(C(=O)c6ccc(F)cc6)CC5)o4)c3C2=O)C(=O)N1 (stereo not drawn) [Example 5] | > 0.12 |
|  | 0.03 to 0.15 | 1 to 20 | N#Cc1ccc(C(=O)N2CCC(c3ncc(CNc4cccc5c4C(=O)N(C4CCC(=O)NC4=O)C5=O)o3)CC2)c(F)c1 (stereo not drawn) [Example 6, 4-(4-(5-(((2-(2,6-dioxopiperidin-3-yl)-1,3-dioxoisindole-4-yl)amino)methyl)oxazol-2-yl)piperidine-1-carbonyl)-3-fluorobenzonitrile] | 0.06 to 0.12 |
|  | 0.015 to 0.03 | 1 to 20 | O=C1CCC(N2C(=O)c3cccc(NCc4cnc(C5CCN(C(=O)c6ccc(OC(F)(F)F)cc6)CC5)o4)c3C2=O)C(=O)N1 (stereo not drawn) [Example 7] | > 0.12 |
|  | 0.015 to 0.03 | < 1 | O=C1CCC(N2C(=O)c3cccc(NCc4cnc(C5CCN(C(=O)c6ccc(Cl)cc6Cl)CC5)o4)c3C2=O)C(=O)N1 (stereo not drawn) [Example 8] | 0.06 to 0.12 |

— patent US20250270202A1, “SUBSTITUTED 4-AMINOISOINDOLINE COMPOUND, PREPARATION METHOD THEREFOR, PHARMACEUTICAL COMPOSITION THEREOF, AND USE THEREOF” (SHANGHAI INSTITUTE OF MATERIA MEDICA, CHINESE ACADEMY OF …, priority 2022, published 2025)
